From patent publication EP1183044B1, “ADJUVANT COMBINATIONS FOR IMMUNIZATION AND VACCINES” (priority 1999, dated 2000)

System: IFN-γ
Assay type: in vivo, C57BL/6 mice
Settings: 72 h supernatant of blood cell cultures one week after last booster; ESAT-6 10 µg/dose, three vaccinations

CCCCCCCCCCCCCCCCCC[N+](C)(C)CCCCCCCCCCCCCCCCCC.[Br-] [DDA, dimethyl dioctadecyl ammonium bromide]
ESAT-6 specific recall response, IFN-γ, Expt.I: <50 pg/mL
